# ChEMBL document CHEMBL1201862, “PubChem BioAssay data set” (2004)
# Activity calls are given as the source filed them.
# Experiments:
# [1] = A Cell Based Secondary Assay To Explore Cytotoxicity of Compounds that Sensitize Mycobacterium Tuberculosis to Beta-Lactam Antibiotics.; format: functional
# [2] = Luminescence Cell-Based Dose Retest to Confirm Inhibitors of Cancer Stem Cells. [Related pubchem assays (depositor defined):AID2717, AID2721]; format: functional; settings: Homo sapiens
# [3] = A549 cell cytotoxicity, dose response, cytotoxicity control, plate reader, cherry-pick, antagonist series (AID 743412); format: functional, cell-based
# [4] = toxicity toward HepG2 liver cells – cell-based, plate reader, cherry-pick, antagonist series, cytotoxicity control, dose response (AID 743416); format: functional
# [5] = blockers of bursicon-stimulated LGR2 cAMP reporter – cell-based, HEK293, CRE-luciferase reporter, cherry pick, set 2, dose response (AID 743343); format: functional;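 also: transfected cells were stimulated with diluted bursicon conditioned medium after compound addition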
# [6] = blockade of melanocortin 4 receptor signaling – cell-based, plate reader, cherry pick, counter-screen for LGR2 antagonist project, dose response (AID 743444); format: functional;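 also: transfected HEK 293 cells stimulated with alpha-MSH peptide; potency of inhibitors of the alpha-MSH evoked signal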
# [7] = viability loss in HEK293 cells – cell-based, plate reader, cherry-picked samples, cytotoxicity control, dose response (AID 743446); format: functional
# [8] = molecular target: T1, DNA repair and recombination protein RAD54-like (Homo sapiens, UniProt Q92698); test: RAD54 Holliday junction migration blockers – biochemical, fluorescence, cherry-picked samples, dose series, confirmation (AID 651657); format: functional
# T1 sequence (Q92698 whole entry): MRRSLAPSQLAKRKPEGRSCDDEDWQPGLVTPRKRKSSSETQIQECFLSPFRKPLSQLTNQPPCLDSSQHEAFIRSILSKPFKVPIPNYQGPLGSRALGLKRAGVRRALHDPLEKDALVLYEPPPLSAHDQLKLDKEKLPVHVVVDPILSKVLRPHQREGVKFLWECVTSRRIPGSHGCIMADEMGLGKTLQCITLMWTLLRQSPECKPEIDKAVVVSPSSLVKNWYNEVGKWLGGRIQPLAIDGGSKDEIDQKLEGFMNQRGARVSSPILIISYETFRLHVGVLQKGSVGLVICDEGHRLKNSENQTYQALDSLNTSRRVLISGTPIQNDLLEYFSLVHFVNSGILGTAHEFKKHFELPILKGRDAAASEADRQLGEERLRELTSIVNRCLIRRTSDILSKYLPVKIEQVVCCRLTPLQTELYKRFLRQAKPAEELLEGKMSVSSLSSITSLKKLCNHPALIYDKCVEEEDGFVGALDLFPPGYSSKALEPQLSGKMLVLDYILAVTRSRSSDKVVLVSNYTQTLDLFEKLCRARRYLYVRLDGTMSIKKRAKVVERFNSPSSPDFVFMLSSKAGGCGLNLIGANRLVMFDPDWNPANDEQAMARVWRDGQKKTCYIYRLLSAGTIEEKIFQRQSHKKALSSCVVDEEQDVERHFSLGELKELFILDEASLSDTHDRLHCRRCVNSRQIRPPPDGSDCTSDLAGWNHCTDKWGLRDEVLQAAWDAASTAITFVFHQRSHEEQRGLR
# [9] = molecular target: T2, DNA repair protein RAD52 homolog (Homo sapiens, UniProt P43351); format: functional, biochemical
# T2 sequence (P43351 whole entry): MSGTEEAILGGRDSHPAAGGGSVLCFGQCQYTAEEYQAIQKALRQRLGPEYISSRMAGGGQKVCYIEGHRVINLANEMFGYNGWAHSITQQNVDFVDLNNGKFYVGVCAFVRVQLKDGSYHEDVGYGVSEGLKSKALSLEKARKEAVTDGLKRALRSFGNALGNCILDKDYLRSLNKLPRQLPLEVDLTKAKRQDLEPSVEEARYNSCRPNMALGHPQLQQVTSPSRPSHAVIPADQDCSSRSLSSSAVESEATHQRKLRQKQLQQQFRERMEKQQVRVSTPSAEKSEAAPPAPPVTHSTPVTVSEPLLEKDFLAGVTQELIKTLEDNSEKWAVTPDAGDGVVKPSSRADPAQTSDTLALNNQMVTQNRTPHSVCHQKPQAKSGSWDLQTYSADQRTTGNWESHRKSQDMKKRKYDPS
# [10] = A cytotoxicity screen of small molecule inhibitors of the PhoP region in Salmonella typhi identified in the primary screen. [Related pubchem assays: 1850, 1864, 1985 ]; format: functional
# Escherichia coli = test: microbe, parasite or virus in culture
# [11] = molecular target: T3, Short transient receptor potential channel 4 (Mus musculus, UniProt Q9QUQ5); test: calcium entry via TRPC4 opening agents – cell-based, HEK293 TRPC4/mu-opioid, Fluo-4 calcium, dose response (AID 434937); format: functional
# T3 sequence (Q9QUQ5 whole entry): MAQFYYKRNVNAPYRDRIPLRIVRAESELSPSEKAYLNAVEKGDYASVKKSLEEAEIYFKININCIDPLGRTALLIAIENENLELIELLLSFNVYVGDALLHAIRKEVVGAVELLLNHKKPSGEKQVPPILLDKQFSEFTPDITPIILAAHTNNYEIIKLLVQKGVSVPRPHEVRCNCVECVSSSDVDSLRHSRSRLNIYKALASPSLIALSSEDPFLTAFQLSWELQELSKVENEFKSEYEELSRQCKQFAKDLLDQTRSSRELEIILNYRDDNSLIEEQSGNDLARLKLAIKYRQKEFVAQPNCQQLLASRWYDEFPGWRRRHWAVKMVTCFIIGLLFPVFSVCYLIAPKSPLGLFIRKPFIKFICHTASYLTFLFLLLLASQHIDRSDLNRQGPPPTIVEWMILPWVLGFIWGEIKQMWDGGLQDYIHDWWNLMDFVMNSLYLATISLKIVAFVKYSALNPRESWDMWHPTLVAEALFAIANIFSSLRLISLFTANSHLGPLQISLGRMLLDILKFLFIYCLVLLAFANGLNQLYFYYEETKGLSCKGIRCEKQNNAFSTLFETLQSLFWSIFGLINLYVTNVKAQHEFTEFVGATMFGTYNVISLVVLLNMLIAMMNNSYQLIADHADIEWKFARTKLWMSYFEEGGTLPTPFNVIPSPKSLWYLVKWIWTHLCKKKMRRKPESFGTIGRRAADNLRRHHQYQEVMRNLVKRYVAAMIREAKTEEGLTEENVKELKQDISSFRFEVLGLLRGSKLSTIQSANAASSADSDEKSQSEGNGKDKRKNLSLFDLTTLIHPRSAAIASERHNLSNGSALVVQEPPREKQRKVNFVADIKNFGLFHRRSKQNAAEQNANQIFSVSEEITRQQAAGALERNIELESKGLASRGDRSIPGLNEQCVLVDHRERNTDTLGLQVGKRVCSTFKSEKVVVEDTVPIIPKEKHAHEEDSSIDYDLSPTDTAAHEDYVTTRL
# [12] = molecular target: T4, Replicative DNA helicase DnaB (Mycobacterium tuberculosis, UniProt P9WMR3); test: DnaB intein splicing inhibitors, dose response, biochemical, cell-free fluorescence (AID 449749); format: functional
# T4 sequence (P9WMR3 whole entry): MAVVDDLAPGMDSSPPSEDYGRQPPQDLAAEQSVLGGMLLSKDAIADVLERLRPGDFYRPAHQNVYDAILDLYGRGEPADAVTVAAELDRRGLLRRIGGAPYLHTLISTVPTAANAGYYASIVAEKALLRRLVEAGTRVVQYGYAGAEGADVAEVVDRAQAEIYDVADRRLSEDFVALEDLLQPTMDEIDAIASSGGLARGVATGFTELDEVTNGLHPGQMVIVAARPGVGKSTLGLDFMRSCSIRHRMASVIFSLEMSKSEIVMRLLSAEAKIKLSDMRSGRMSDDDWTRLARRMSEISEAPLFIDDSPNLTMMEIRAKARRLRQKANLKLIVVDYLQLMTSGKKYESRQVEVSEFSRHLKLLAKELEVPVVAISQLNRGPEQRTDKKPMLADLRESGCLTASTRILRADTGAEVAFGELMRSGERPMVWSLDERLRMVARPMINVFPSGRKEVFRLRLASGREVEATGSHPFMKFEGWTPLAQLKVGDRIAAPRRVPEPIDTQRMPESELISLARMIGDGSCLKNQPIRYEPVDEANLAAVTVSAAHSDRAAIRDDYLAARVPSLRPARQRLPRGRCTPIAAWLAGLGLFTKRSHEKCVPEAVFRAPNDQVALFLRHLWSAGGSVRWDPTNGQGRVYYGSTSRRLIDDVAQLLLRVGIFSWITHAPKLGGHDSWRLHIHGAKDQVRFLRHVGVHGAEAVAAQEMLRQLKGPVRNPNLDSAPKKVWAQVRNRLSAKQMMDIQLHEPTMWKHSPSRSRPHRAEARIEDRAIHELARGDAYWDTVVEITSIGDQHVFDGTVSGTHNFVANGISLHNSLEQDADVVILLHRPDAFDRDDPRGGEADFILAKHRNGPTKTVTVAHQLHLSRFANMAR
# Protein RecA = molecular target: T5, Protein RecA (Mycobacterium tuberculosis, UniProt P9WHJ3); test: Fluorescence Cell-Free Homogeneous Dose Retest to Identify Inhibitors of RecA-Intein Splicing Activity. [Related pubchem assays (depositor defined):AID2097, AID2223, AID489010, AID492950]; format: functional
# T5 sequence (P9WHJ3 whole entry): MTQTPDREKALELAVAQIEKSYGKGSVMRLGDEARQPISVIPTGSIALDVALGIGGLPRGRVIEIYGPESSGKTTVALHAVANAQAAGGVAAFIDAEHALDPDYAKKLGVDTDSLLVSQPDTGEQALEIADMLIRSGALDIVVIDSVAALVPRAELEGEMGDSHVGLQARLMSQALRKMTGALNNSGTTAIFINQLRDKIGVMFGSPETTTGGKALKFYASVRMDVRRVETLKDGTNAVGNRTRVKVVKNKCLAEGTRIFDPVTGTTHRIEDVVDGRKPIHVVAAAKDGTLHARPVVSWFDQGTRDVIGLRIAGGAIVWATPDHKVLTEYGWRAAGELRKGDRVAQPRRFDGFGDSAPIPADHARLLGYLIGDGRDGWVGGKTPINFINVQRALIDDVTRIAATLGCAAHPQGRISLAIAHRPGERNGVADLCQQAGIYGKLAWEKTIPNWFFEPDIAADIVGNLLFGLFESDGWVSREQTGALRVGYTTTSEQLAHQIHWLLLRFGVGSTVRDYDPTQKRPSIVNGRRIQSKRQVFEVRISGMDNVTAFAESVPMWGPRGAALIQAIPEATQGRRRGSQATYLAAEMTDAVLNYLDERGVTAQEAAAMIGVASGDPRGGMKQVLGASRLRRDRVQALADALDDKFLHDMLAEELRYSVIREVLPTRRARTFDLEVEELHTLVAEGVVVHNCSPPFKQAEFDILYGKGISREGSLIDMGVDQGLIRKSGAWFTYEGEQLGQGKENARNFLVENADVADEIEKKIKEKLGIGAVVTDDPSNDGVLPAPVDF
# Cytochrome P450 2C19 = Cytochrome P450 2C19 (Homo sapiens, UniProt P33261); test: Cytochrome panel assay with activity outcomes. Panel member name: p450-cyp2c19 Compounds with AC50 equal or less than 10 uM are considered active; format: functional; settings: read-out: AC50
# [13] = molecular target: T6, Ubiquitin-conjugating enzyme E2 N (Homo sapiens, UniProt P61088); format: functional;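 also: Dose-response confirmation in a TR-FRET assay detecting UBC13-driven polyubiquitin chain formation, inhibition measured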
# T6 sequence (P61088 whole entry): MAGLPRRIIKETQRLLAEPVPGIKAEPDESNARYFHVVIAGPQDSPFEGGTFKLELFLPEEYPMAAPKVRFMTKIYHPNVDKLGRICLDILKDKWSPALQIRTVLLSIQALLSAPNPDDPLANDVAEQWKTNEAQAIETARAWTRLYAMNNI
# [14] = molecular target: Heat shock protein HSP 90-alpha (Homo sapiens, UniProt P07900); format: functional, organism-based
# [15] = Fluorescence-based cell-based high throughput dose response assay for inhibitors of the interaction of nucleotide-binding oligomerization domain containing 2 (NOD2) and the receptor-interacting serine-threonine kinase 2 (RIPK2).; format: functional, Homo sapiens
# Sequence of Cytochrome P450 2C19 (P33261 whole entry): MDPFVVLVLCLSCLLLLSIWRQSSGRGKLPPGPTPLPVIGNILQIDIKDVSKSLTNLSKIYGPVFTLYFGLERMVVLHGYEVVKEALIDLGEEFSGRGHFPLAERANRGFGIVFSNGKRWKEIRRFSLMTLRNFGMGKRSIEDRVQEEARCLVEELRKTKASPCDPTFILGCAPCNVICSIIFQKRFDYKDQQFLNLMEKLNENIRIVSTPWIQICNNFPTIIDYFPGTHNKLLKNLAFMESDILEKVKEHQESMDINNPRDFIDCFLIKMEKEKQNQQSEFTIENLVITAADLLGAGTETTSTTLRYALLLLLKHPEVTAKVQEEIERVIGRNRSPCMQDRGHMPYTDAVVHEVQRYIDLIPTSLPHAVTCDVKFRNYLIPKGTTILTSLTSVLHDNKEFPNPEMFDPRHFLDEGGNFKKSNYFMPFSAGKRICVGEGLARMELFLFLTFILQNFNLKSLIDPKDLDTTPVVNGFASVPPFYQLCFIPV
smiles,measurement,setting,value
Cn1nnnc1Sc1ncnc2scc(-c3ccc(C(F)(F)F)cc3)c12,CC50,[1],6.16 µM (active)
same,AC50,[2],2.52 µM (active)
same,AC50,[3],7.67 µM (active)
same,AC50,[4],8.47 µM (active)
same,AC50,[5],14.8 µM (active)
same,AC50,[6],17.7 µM (active)
same,AC50,[7],8.08 µM (active)
CCCCN(CC)CCCNC(=O)c1cc2c(-c3ccc(OC)c(OC)c3)nn(C)c2s1,AC50,[8],9.31 µM (active)
same,AC50,[9],3.21 µM (active)
NC(=O)CN1CCN(CCN2C(=O)c3cccc4cccc(c34)C2=O)CC1,AC50,[8],13.3 µM (active)
same,AC50,[9],12.1 µM (active)
CCn1cc(C(=O)NCCCN(C)C)c(=O)c2cc(F)c(N3CCN(C)CC3)cc21,EC50,[10],> 50 µM (active)
Cc1ccc(NC(=O)c2ccc(Oc3ncccn3)cc2)cc1,AC50,Escherichia coli,37.9 µM (active)
C[C@@H](C(=O)NC1CCCC1)N1C(=O)N2CCc3c([nH]c4ccccc34)[C@@]2(C)C1=O,EC50,[10],> 50 µM (active)
COc1ccccc1-n1nc(C(=O)Nc2ccc3c(c2)OCO3)c2ccccc2c1=O,AC50,Escherichia coli,74.7 µM (active)
CC1CC(C)CN(CCCNC(=O)COc2cc(=O)n(C)c3ccccc23)C1 (stereo not given),EC50,[11],0.749 µM (active)
CC(=O)NCCn1c(SCc2ccccc2C)nc2ccccc2c1=O,EC50,[10],> 50 µM (active)
same,AC50,[12],28.4 µM (active)
same,EC50,Protein RecA,83.2 µM (active)
CCN(CC)CCNC(=O)c1cc2c(=O)n(C)c3ccccc3c2n1C,AC50,[8],18.3 µM (active)
O=C(O)C1C2C=CC(C2)C1C(=O)N1CCN(C/C=C/c2ccccc2)CC1 (stereo not given),EC50,[11],5.96 µM (active)
same,AC50,Cytochrome P450 2C19,14.1 µM (inconclusive)
COc1ccc(C[C@@H]2CN3C(=NC[C@@H]3Cc3ccc(O)cc3)N2C[C@H](C)NC(=O)CCC2CCCCC2)cc1,IC50,[13],> 20 µM (inactive)
O=C1NC(=O)N(CCc2ccccc2)C(=O)/C1=C/NCc1ccc2c(c1)OCO2,AC50,Escherichia coli,43.4 µM (active)
CCC(C(=O)NC1CCCC1)N(C(=O)c1snc(C(N)=O)c1N)c1ccc(OC)cc1 (stereo not given),IC50,[13],> 20 µM (inactive)
CCOc1ncccc1C(=O)N(CC)CC(=O)Nc1ccc(NC(C)=O)cc1,AC50,Escherichia coli,96.8 µM (active)
OC(Cn1cncn1)(c1ccccc1)c1ccccc1,AC50,[14],1.43 µM (active)
CC1CCCCN1S(=O)(=O)c1ccc(NC(=O)c2ccco2)cc1 (stereo not given),AC50,Escherichia coli,32.1 µM (active)
Cc1cc(C)c2nc(C)cc(Nc3ccc(C(=O)NCCO)cc3)c2c1,AC50,[8],32.6 µM (active)
CC(=O)OC1CC2OC3C=C(C)CCC3(C)C1(C)C21CO1 (stereo not given),IC50,[15],49.8 µM (inactive)
